{"source": "patent US9687429B2", "about": "“Antimicrobial compositions containing low concentrations of botanicals” (THE TRUSTEES OF COLUMBIA UNIVERSITY IN THE CITY OF NEW YORK, priority 2007, dated 2017)", "key": {"S. aureus [1]": {"system": "S. aureus", "assay": "Five-minute kill test of solutions in 10% SDA40-B alcohol and water, colony counts", "type": "cell-based", "settings": "control counts 1 × 10^6 to 5 × 10^6", "experimental": "Various concentrations of basil oil and acetic, lactic, and citric acids, separately and in combination, were prepared in 10 percent SDA40-B alcohol and water, and adjusted to 100 percent. Except for citric acid, which was added by weight, all other ingredients were measured by volume. 0.9 ml of each solution were dispensed in sterile culture tubes, in triplicate, and 0.1 ml of a 10^7 cfu/ml S. aureus culture was added to the tubes, vortexed, and then, five minutes later, 9.0 ml of drug inactivating medium was added to each tube. Serial dilutions were made with the drug inactivating medium. 0.5 ml of the dilutions were plated on trypticase soy agar (“TSA”) plates. As a control, water containing 10 percent SDA40-B alcohol was processed in parallel. The plates were incubated at 37° C. for 24-48 hours and then the colony counts were determined.\nThe same methodology was used to test the antimicrobial activity of combinations of citric acid with other essential oils.\nVarious concentrations of cinnamon leaf oil and citric acid were dissolved in SDA 40-B alcohol (10%) and water, and adjusted to 100 percent. Except for citric acid, which was added by weight, all other ingredients were measured by volume. 0.9 ml of each solution were dispensed in sterile culture tubes, in triplicate, and 0.1 ml of 10^7 cfu/ml of S. aureus culture was added to the tubes, vortexed, and then, five minutes later, 9.0 ml of drug inactivating medium was added to each tube. Serial dilutions were made with the drug inactivating medium. 0.5 ml of the dilutions were plated on trypticase soy agar (“TSA”) plates. As a control, water containing 10% percent SDA40-B alcohol was processed in parallel. The plates were incubated at 37° C. for 24-48 hours and then the colony counts were determined.\nThe following experiments were performed to evaluate the antibacterial activity of LG and Citric acid dissolved in alcohol, where the test organism used was S. aureus. Various amounts of LG oil and Citric acid were dissolved in SDA40-B alcohol, and then water was added to result in the EO concentration shown and an alcohol concentration of 10 percent. 0.9 ml of each solution were dispensed in sterile culture tubes, in triplicate, and 0.1 ml of a 10^7 cfu/ml S. aureus culture was added to the tubes, vortexed, and then, five minutes later, 9.0 ml of drug inactivating medium was added to each tube. Serial dilutions were made with drug inactivating medium. 0.5 ml of the dilutions were plated on trypticase soy agar (“TSA”) plates. As a control, water containing 10 percent SDA40-B alcohol was processed in parallel. The plates were incubated at 37° C. for 24-48 hours and then the colony counts were determined."}, "S. aureus [2]": {"system": "S. aureus", "assay": "Synergistic activity of essential oils and plant extracts with citric acid, log10 reduction from control bacterial counts", "type": "cell-based", "settings": "Table 202, compounds in %, control counts 1×10^7 to 5×10^7", "source_text": "Log10 reduction from control bacterial counts that range from 1×10^7 to 5×10^7."}, "S. aureus [3]": {"system": "S. aureus", "assay": "Soap rapid kill test (30 second kill) in presence of bovine serum", "type": "cell-based", "procedure": "The antimicrobial activity of the above soap was tested in parallel with commercial Softsoap® containing triclosan (Softsoap® Antibacterial; Colgate-Palmolive). 0.1 ml of a 10^8 cfu/ml culture of each microbe tested was mixed with 0.1 ml of bovine serum and placed in a sterile culture tube. 0.8 ml of the test soap formulation was added to the tube and vortexed for 30 seconds. Then 9.0 ml DNB was added to neutralize the activity of the soap. The tube was then vortexed and serially diluted with DNB. 0.5 ml of the diluted solution was plated on TSA plates. The same soap base lacking cinnamon oil, citric acid, and orange oil, with phosphate buffered saline mixed with the culture, were used as the controls.\nThe antimicrobial activity of the above soap was tested in parallel with commercial Dial® Antibacterial Hand Soap) containing triclosan. 0.1 ml of a 10^8 cfu/ml culture of each microbe tested was mixed with 0.1 ml of bovine serum and placed in a sterile culture tube. 0.8 ml of the test soap formulation was added to the tube and vortexed for 30 seconds. Then 9.0 ml DNB was added to neutralize the activity of the soap. The tube was then vortexed and serially diluted with DNB. 0.5 ml of the diluted solution was plated on TSA plates. The same soap base lacking cinnamon oil, citric acid, and orange oil, with phosphate buffered saline mixed with the culture, were used as the controls.\nThe following method was used. A mixture of 0.1 ml of 10^7 cfu/ml of S. aureus culture and 0.1 ml of bovine serum were placed in a sterile culture tube. 0.8 ml of the test soap formulation was added to the tube and vortexed for 30 seconds. 9.0 ml DFN was added to the tube to neutralize the activity of the soap; this tube was then vortexed and serially diluted with DFN. 0.5 ml of the diluted solution was plated on trypticase soy agar plates, incubated at 37° C. for 24-48 hours and the colony counts were determined. Soft Soap® and Dial® soaps containing 0.15% triclosan was also tested similarly at the same time. The soap base without essential oils and Citric acid containing the culture were used as controls.\nThe following method was used. A mixture of 0.1 ml of 10^7 cfu/ml of S. aureus culture and 0.1 ml of bovine serum were placed in a sterile culture tube. 0.8 ml of the test soap formulation was added to the tube and vortexed for 30 seconds. 9.0 ml DFN was added to the tube to neutralize the activity of the soap; this tube was then vortexed and serially diluted with DFN. 0.5 ml of the diluted solution was plated on trypticase soy agar plates, incubated at 37° C. for 24-48 hrs and the colony counts were determined. Soft Soap® and Dial® soaps containing 0.15% triclosan was also tested similarly at the same time. The soap base without essential oils and citric acid containing the culture were used as controls.\nThe following method was used. A mixture of 0.1 ml of 10^8 cfu/ml of S. aureus culture and 0.1 ml of bovine serum were placed in a sterile culture tube. 0.8 ml of the test soap formulation was added to the tube and vortexed for 30 seconds. 9.0 ml DFN was added to the tube to neutralize the activity of the soap; this tube was then vortexed and serially diluted with DFN. 0.5 ml of the diluted solution was plated on trypticase soy agar plates, incubated at 37° C. for 24-48 hours and the colony counts were determined.\nA mixture of 0.1 ml of 10^7 cfu/ml of S. aureus culture and 0.1 ml of bovine serum were placed in a sterile culture tube. 0.8 ml of the test soap formulation was added to the tube and vortexed for 30 seconds. 9.0 ml DFN was added to the tube to neutralize the activity of the soap; this tube was then vortexed and serially diluted with DFN."}, "S. aureus [4]": {"system": "S. aureus", "settings": "erythromycin, gentamicin, vancomycin, ciproflaxin, clindamycin, tetracycline; cited from earlier work"}}, "data": [{"smiles": "CC(C)=CCCC(C)=CCCC(C)=CCO", "note": "[0.25% Farnesol]", "values": [{"measurement": "Log10 Reduction from control bacterial counts", "setting": "S. aureus [1]; Table 106, five minutes", "result": 0, "unit": "Log10"}]}, {"smiles": "O=C(O)CC(O)(CC(=O)O)C(=O)O", "note": "[1 Citric acid]", "values": [{"measurement": "Log10 Reduction from control bacterial counts", "setting": "S. aureus [2]", "result": 0.7, "unit": "Log10"}]}, {"smiles": "CC(=O)O", "note": "[1% Acetic acid (AA)]", "values": [{"measurement": "Log10 Reduction from control bacterial counts", "setting": "S. aureus [1]; Table 105, five minutes", "result": 0.2, "unit": "Log10"}]}, {"smiles": "O=C(O)CC(O)(CC(=O)O)C(=O)O", "note": "[1% Citric Acid (CA)]", "values": [{"measurement": "Log10 Reduction from control bacterial counts", "setting": "S. aureus [1]; Table 105, five minutes", "result": 0.1, "unit": "Log10"}]}, {"smiles": "CC(O)C(=O)O", "note": "(centres unmarked) [1% Lactic acid (LA)]", "values": [{"measurement": "Log10 Reduction from control bacterial counts", "setting": "S. aureus [1]; Table 105, five minutes", "result": 2.3, "unit": "Log10"}]}, {"smiles": "CCCCCCCCC(O)CO", "note": "(centres unmarked) [1,2 decanediol (0.3%)]", "values": [{"measurement": "Log10 reduction from control", "setting": "S. aureus [3]; Table 150, 30 seconds, bovine serum, alkanediols 0.3%, control 2 × 10^8-5 × 10^8", "result": 0.6, "unit": "Log10"}]}, {"smiles": "CCCCCCCCC(O)CO", "note": "(centres unmarked) [1,2 decanediol(0.5%)]", "values": [{"measurement": "Log10 reduction from control", "setting": "S. aureus [3]; Table 151, 30 second Kill, alkanediols 0.5%, soaps pH 4.5-4.6, control 2 × 10^8-5 × 10^8", "result": 1.4, "unit": "Log10"}]}, {"smiles": "CC(C)=CCC/C(C)=C/CC1CCCC1=O", "note": "(centres unmarked) [apritone]", "values": [{"measurement": "effect on susceptibility of S. aureus to antibiotics (in words)", "setting": "S. aureus [4]", "result": "enhanced the susceptibility of S. aureus"}]}, {"smiles": "CC(C)=CCC[C@](C)(O)C1CC=C(C)CC1", "note": "(some centres unmarked) [bisabolol]", "values": [{"measurement": "effect on susceptibility of S. aureus to antibiotics (in words)", "setting": "S. aureus [4]", "result": "enhanced the susceptibility of S. aureus"}]}, {"smiles": "O=C(O)CC(O)(CC(=O)O)C(=O)O", "note": "[citric acid]", "values": [{"measurement": "antibacterial activity of soap, 30 second kill (in words)", "setting": "S. aureus [3]; bovine serum", "result": "enhance the activity of soaps containing triclosan"}]}, {"smiles": "CCCCCCCCC(O)CO", "note": "(centres unmarked) [decanediol, 1,2 decanediol]", "values": [{"measurement": "antibacterial activity of soap, 30 second kill (in words)", "setting": "S. aureus [3]; bovine serum", "result": "enhances the activity of Dial®-T Soap+LG-O-Cit 4"}]}, {"smiles": "C=CCc1ccc(O)c(OC)c1", "note": "[eugenol]", "values": [{"measurement": "antibacterial activity of soap, 30 second kill (in words)", "setting": "S. aureus [3]; bovine serum", "result": "improved the antimicrobial effect"}]}, {"smiles": "CC(C)=CCCC(C)=CCCC(C)=CCO", "note": "[farnesol]", "values": [{"measurement": "effect on susceptibility of S. aureus to antibiotics (in words)", "setting": "S. aureus [4]", "result": "enhanced the susceptibility of S. aureus"}]}, {"smiles": "C=CC(C)(O)CCC=C(C)CCC=C(C)C", "note": "(centres unmarked) [nerolidol]", "values": [{"measurement": "effect on susceptibility of S. aureus to antibiotics (in words)", "setting": "S. aureus [4]", "result": "enhanced the susceptibility of S. aureus"}]}]}
